Experimental data as given in US20060069132A1, “Azolecarboxamide herbicides” (priority 2004, published 2006).

How the values were obtained:
goosegrass = test: Test C pre-/postemergence herbicide test; format: in vivo, Eleusine indica; details: for Plant response rating, Goosegrass: preemergence
Outline: (§1)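 Pre/post spray; non-phytotoxic solvent + surfactant. Post-timing 1–4 leaves, 2–18 cm. Read-out: visual % control vs untreated, day 12–14, greenhouse.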

corn = test: Test C pre-/postemergence herbicide test; format: in vivo, Zea mays; details: for Plant response rating, Corn: preemergence
Outline: as §1

yellow nutsedge = test: Test C pre-/postemergence herbicide test; format: in vivo, Cyperus esculentus; details: for Plant response rating, Nutsedge, Yellow: preemergence
Outline: as §1

lambsquarters = test: Test C pre-/postemergence herbicide test; format: in vivo, Chenopodium album; details: for Plant response rating, Lambsquarters: preemergence
Outline: as §1

Surinam grass = test: Test C pre-/postemergence herbicide test; format: in vivo, Urochloa decumbens; details: for Plant response rating, Surinam Grass: preemergence
Outline: as §1

morningglory = test: Test C pre-/postemergence herbicide test; format: in vivo, Ipomoea coccinea; design: key to Plant response rating, Morningglory: 0 = no effect, 100 = complete control; details: for Plant response rating, Morningglory: preemergence
Outline: as §1

barnyardgrass = test: Test C flooded paddy test; format: in vivo, Echinochloa crus-galli; details: for Plant response rating, Barnyardgrass: 500 g ai/ha, visual rating after 12 to 14 days
Outline: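 Ratings (0 = no effect, 100 = complete control) come from visual comparison with untreated plants after 12 to 14 days in the greenhouse. Treatment was postemergence at the 1- to 4-leaf stage (2–18 cm), or at the 2-leaf stage for the flooded paddy barnyardgrass.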

[1] = system: smallflower umbrella sedge; test: Test C flooded paddy test; format: in vivo, Cyperus difformis
soybean = test: Test C pre-/postemergence herbicide test; format: in vivo, Glycine max; details: for Plant response rating, Soybean: preemergence
Outline: as §1

woolly cupgrass = test: Test C pre-/postemergence herbicide test; format: in vivo, Eriochloa villosa; details: for Plant response rating, Cupgrass, Woolly: preemergence
Outline: as §1

pigweed = test: Test C pre-/postemergence herbicide test; format: in vivo, Amaranthus retroflexus; details: for Plant response rating, Pigweed: preemergence
Outline: as §1

kochia = test: Test C pre-/postemergence herbicide test; format: in vivo, Kochia scoparia; details: for Plant response rating, Kochia: preemergence
Outline: as §1

[2] = 125 g ai/ha, scale 0 (no effect) to 100 (complete control), visual, 12 to 14 days
[3] = Preemergence, 500 g ai/ha, scale 0 to 100, 0 no effect, 100 complete control
[4] = 250 g ai/ha, scale 0 to 100 (0 no effect, 100 complete control), visual, 12 to 14 days
[5] = 62 g ai/ha, scale 0 to 100 (0 no effect, 100 complete control)
[6] = 250 g ai/ha, scale of 0 to 100, 0 is no effect, 100 is complete control
[7] = scale 0 to 100 (0 no effect, 100 complete control)
[8] = 500 g ai/ha, scale 0 to 100 (0 no effect, 100 complete control), visual, 12 to 14 days
[9] = 125 g ai/ha, scale 0 to 100 (0 no effect, 100 complete control)

CCn1nc(C(C)(C)C)cc1C(=O)Nc1cccc(C(N)=O)n1 [Compound 162, 6-[[[3-(1,1-dimethylethyl)-1-ethyl-1H-pyrazol-5-yl]carbonyl]amino]-2-pyridinecarboxamide]
Plant response rating, Goosegrass (goosegrass; 62 g ai/ha, scale 0 to 100): 60
Plant response rating, Goosegrass (goosegrass; [2]): 60
Goosegrass plant response rating (goosegrass; [3]): 80
Plant response rating, Corn (corn; 62 g ai/ha, scale 0 to 100): 20
Plant response rating, Corn (corn; [2]): 70
Plant response rating, Corn (corn; [4]): 75
Corn plant response rating (corn; [3]): 75
Plant response rating, Nutsedge, Yellow (yellow nutsedge; 62 g ai/ha, scale 0 to 100): 0
Plant response rating, Nutsedge, Yellow (yellow nutsedge; [2]): 20
Nutsedge, Yellow plant response rating (yellow nutsedge; [3]): 60
Plant response rating, Lambsquarters (lambsquarters; 62 g ai/ha, scale 0 to 100): 80
Plant response rating, Lambsquarters (lambsquarters; [2]): 95
Lambsquarters plant response rating (lambsquarters; [3]): 100
Plant response rating, Surinam Grass (Surinam grass; 62 g ai/ha, scale 0 to 100): 0
Plant response rating, Surinam Grass (Surinam grass; [2]): 75
Surinam Grass plant response rating (Surinam grass; [3]): 95
Plant response rating, Morningglory (morningglory; 62 g ai/ha, scale 0 to 100): 45
Plant response rating, Morningglory (morningglory; [2]): 100
Morningglory plant response rating (morningglory; [3]): 100
Barnyardgrass plant response rating (barnyardgrass; [5]): 45
Barnyardgrass plant response rating (barnyardgrass; 125 g ai/ha, scale of 0 to 100, 0 is no effect, 100 is complete control): 65
Barnyardgrass plant response rating (barnyardgrass; [6]): 75
Plant response rating, Barnyardgrass (barnyardgrass; [7]): 90
Sedge, Umbrella plant response rating [1, 5]: 70
Sedge, Umbrella plant response rating [1, 6]: 75
Plant response rating, Soybean (soybean; 62 g ai/ha, scale 0 to 100): 15
Plant response rating, Soybean (soybean; [2]): 75
Soybean plant response rating (soybean; [3]): 100
Plant response rating, Cupgrass, Woolly (woolly cupgrass; 62 g ai/ha, scale 0 to 100): 0
Plant response rating, Cupgrass, Woolly (woolly cupgrass; [2]): 0
Plant response rating, Cupgrass, Woolly (woolly cupgrass; [4]): 0
Cupgrass, Woolly plant response rating (woolly cupgrass; [3]): 100
Plant response rating, Pigweed (pigweed; 62 g ai/ha, scale 0 to 100): 100
Plant response rating, Pigweed (pigweed; [2]): 100
Pigweed plant response rating (pigweed; [3]): 100
Plant response rating, Kochia (kochia; 62 g ai/ha, scale 0 to 100): 65
Plant response rating, Kochia (kochia; [2]): 75
Kochia plant response rating (kochia; [3]): 100

CCc1nn(C(C)(C)C)cc1C(=O)Nc1cc(C(=O)N(C)C)ccn1 [Compound 293]
Plant response rating, Goosegrass (goosegrass; 62 g ai/ha, scale 0 to 100): 65
Plant response rating, Goosegrass (goosegrass; [2]): 85
Plant response rating, Goosegrass (goosegrass; 250 g ai/ha, scale 0-100): 95
Plant response rating, Goosegrass (goosegrass; [8]): 100
Plant response rating, Corn (corn; [2]): 10
Plant response rating, Corn (corn; 250 g ai/ha, scale 0-100): 80
Plant response rating, Corn (corn; [8]): 95
Plant response rating, Nutsedge, Yellow (yellow nutsedge; 62 g ai/ha, scale 0 to 100): 0
Plant response rating, Nutsedge, Yellow (yellow nutsedge; [2]): 0
Plant response rating, Nutsedge, Yellow (yellow nutsedge; 250 g ai/ha, scale 0-100): 0
Plant response rating, Nutsedge, Yellow (yellow nutsedge; [8]): 20
Plant response rating, Lambsquarters (lambsquarters; 62 g ai/ha, scale 0 to 100): 100
Plant response rating, Lambsquarters (lambsquarters; [2]): 100
Plant response rating, Lambsquarters (lambsquarters; 250 g ai/ha, scale 0-100): 100
Plant response rating, Lambsquarters (lambsquarters; [8]): 100
Plant response rating, Surinam Grass (Surinam grass; 250 g ai/ha, scale 0-100): 100
Plant response rating, Surinam Grass (Surinam grass; [8]): 100
Plant response rating, Morningglory (morningglory; 250 g ai/ha, scale 0-100): 100
Barnyardgrass plant response rating (barnyardgrass; [5]): 0
Barnyardgrass plant response rating (barnyardgrass; [9]): 20
Barnyardgrass plant response rating (barnyardgrass; [6]): 70
Plant response rating, Barnyardgrass (barnyardgrass; [7]): 80
Sedge, Umbrella plant response rating ([1]; 62 g ai/ha, scale 0 to 100): 20
Sedge, Umbrella plant response rating [1, 9]: 75
Sedge, Umbrella plant response rating [1, 6]: 80
Plant response rating, Sedge, Umbrella ([1]; 500 g ai/ha, visual rating after 12 to 14 days, scale 0 to 100 (0 no effect, 100 complete control)): 90
Plant response rating, Soybean (soybean; 62 g ai/ha, scale 0 to 100): 0
Plant response rating, Soybean (soybean; 250 g ai/ha, scale 0-100): 90
Plant response rating, Soybean (soybean; [8]): 100
Plant response rating, Cupgrass, Woolly (woolly cupgrass; 62 g ai/ha, scale 0 to 100): 45
Plant response rating, Cupgrass, Woolly (woolly cupgrass; [2]): 70
Plant response rating, Cupgrass, Woolly (woolly cupgrass; 250 g ai/ha, scale 0-100): 95
Plant response rating, Cupgrass, Woolly (woolly cupgrass; [8]): 100
Plant response rating, Pigweed (pigweed; 62 g ai/ha, scale 0 to 100): 20
Plant response rating, Pigweed (pigweed; [2]): 85
Plant response rating, Pigweed (pigweed; 250 g ai/ha, scale 0-100): 95
Plant response rating, Pigweed (pigweed; [8]): 100
Plant response rating, Kochia (kochia; 62 g ai/ha, scale 0 to 100): 100
Plant response rating, Kochia (kochia; [2]): 100
Plant response rating, Kochia (kochia; 250 g ai/ha, scale 0-100): 100
Plant response rating, Kochia (kochia; [8]): 100
